Experimental data from patent publication US10131558B1, “Compositions, methods, and/or systems for managing sulfide” (priority 2016, dated 2018).
Where two headings read alike, the source gives them in different places.

What was measured:
[1] = tested on: total heterotrophic bacteria; test: Disinfection of wastewater using chelated iron compounds; type: cell-based; conditions: 30 min, raw average 18,188 CFUs; for Test 3 CFUs/ml 12 ppm Fe-Chelant: chelant alone, no H2O2
Experimental: The clarified supernatant was then pored off of the top of the settled solids within the sample. The supernatant was then mixed and four samples were collected to determine untreated heterotrophic bacteria counts. […] were dissolved in distilled water at 0.4334M. Ferric chloride was added in amounts to achieve saturation of chelant sites on the respective chelants. […] Twenty individual liter samples of supernatant were then decanted from the well-mixed wastewater sample for testing. Four chelated iron products with peroxide were tested at two test concentrations and compared to samples receiving peroxide only and iron chelate only. […] Samples were then decanted to sterile sample containers containing sodium thiosulfate to stop the oxidation process and preserve the sample. Samples were then placed in a refrigerator until all samples were finished. Samples were packaged in a standard cooler with ice packs and sent via overnite delivery to ProChem Labs in Lynchburg, Va. for analysis for total heterotrophic bacteria counts.

[2] = Treatment of sulfides in municipal wastewater using ferric chelants and ozone; conditions: ozone ~13.4 ppm, 4 ppm ferric chelant where used; for sulfide remaining: start 13.70
Source text: The raw wastewater received a dose of 4 ppm of each of the four ferric chelants (mass calculated as chelant) just prior to addition of ozone.
Ozone addition was accomplished using an ozone generator from Ozone Solutions, Sioux Center, Iowa. The generator was capable of generating up to 2 grams per hour of ozone. Injection of ozone into the wastewater was accomplished using an injection system from Ozone Solutions called the H2O-Mini. The unit is designed to treat from 1.5 to 5.7 liters per minute of wastewater. The unit was set up to deliver 6.7 mg/minute of dissolved ozone (assumed the 80% efficiency of dissolution noted by the manufacturer) to wastewater passing the injection nozzle within the H2O-mini. Each test was designed for maximum wastewater flow through the H2O-mini (5.7 liters/min).
An objective of the study will be to treat most, but not all, of the sulfide present within the individual test samples in order to determine which treatment was more efficient than the others.
Samples were taken over twenty minutes of contact time from the recirculation vessel after ozonation. For each of the four ferric chelant studies, chelants were added to the wastewater recirculation vessels just prior to starting the injection of ozone and recirculation of the liquids. The injection of ozone was applied over the prescribed period and sampled as before in the ozone only experiment.

[3] = Treatment of sulfides in municipal wastewater using ferric chelants and hydrogen peroxide; conditions: 20 ppm chelant and 105.8 ppm hydrogen peroxide
[4] = cited from earlier work
[5] = Anaerobic sulfide treatment: pure oxygen versus pure oxygen + ferric MGDA; conditions: 10 cc pure oxygen, ~0.1 ml ~0.03 M Fe MGDA where used
[6] = Anaerobic sulfide treatment: pure oxygen versus pure oxygen + ferric MGDA and nitrate; conditions: for Sulfide: control 33, 10 cc pure oxygen, ~0.1 ml ~0.03 M Fe MGDA with ~8.75 mg nitrate where used
Source text: Three 300 milliliter Supelco test flasks were utilized for conducting the testing. Each flask had two valves and a single port for a septum to inject chemistry into the vessel. Each test flask was completely filled to zero headspace with wastewater from a municipal wastewater treatment facility that had been spiked with sodium sulfide. […] Test flasks were left at room temperature for two hours to assure that any oxygen within the wastewater in the test flasks was consumed prior to the study so as to mimic anaerobic wastewater conditions to initiate the study. […] Oxygen was injected simultaneously with a slight opening of a valve on the cylinder so that wastewater could could be displaced by the incoming volume of oxygen. […] The control sample flask received no injection of any ingredients. After injection of ingredients into each test flask, the flasks were placed on a New Brunswick Shaker Table and shaken for variable periods of time at ˜200 rpm's. After each test period flasks were removed and a sample extracted for sulfide testing using a La Motte Sulfide Color Comparison Test Kit. Sample for the control was taken at time zero for each study.

[7] = Nitrate addition to sewage, lab jar tests and sewage collection system test

Question: Which “Test 1 CFUs/ml 19.8 ppm H2O2 6 ppm Fe-Chelant” value [1] does the source give for `O=C([O-])CN(CCN(CC(=O)[O-])CC(=O)[O-])CC(=O)[O-].[Fe+3]` [Fe-EDTA] here?
Answer: 360 CFUs/ml

Question: What about the “Test 2 CFUs/ml 39.6 ppm H2O2 12 ppm Fe-Chelant” value [1] of the same compound?
Answer: 59 CFUs/ml

Question: What about the “Test 3 CFUs/ml 12 ppm Fe-Chelant” value [1] of the same compound?
Answer: 18,200 CFUs/ml

Question: And the “Overall total percentage of sulfide reduction” value [2]?
Answer: 64%

Question: What about the “Overall total percentage of sulfide reduction” value ([2]; listed as ferric EDTA) of the same compound?
Answer: 64%

Question: And the sulfide remaining ([2]; 5 min contact)?
Answer: 6.20 ppm

Question: And the sulfide remaining ([2]; 10 min contact)?
Answer: 5.10 ppm

Question: And the sulfide remaining ([2]; 20 min contact)?
Answer: 4.90 ppm

Question: What about the “sulfide reduction after 15 minutes” value [3] of the same compound?
Answer: 60%

Question: For `O=C([O-])CN(CCO)CC(=O)[O-].[Fe+3]` [Fe-HEIDA], which “Test 1 CFUs/ml 19.8 ppm H2O2 6 ppm Fe-Chelant” value [1] is on record?
Answer: 1350 CFUs/ml

Question: And the “Test 2 CFUs/ml 39.6 ppm H2O2 12 ppm Fe-Chelant” value [1]?
Answer: 84 CFUs/ml

Question: And the “Test 3 CFUs/ml 12 ppm Fe-Chelant” value [1]?
Answer: 16,700 CFUs/ml

Question: And the “Overall total percentage of sulfide reduction” value [2]?
Answer: 60%

Question: What about the “Overall total percentage of sulfide reduction” value ([2]; listed as ferric HEIDA) of the same compound?
Answer: 60%

Question: And the sulfide remaining ([2]; 5 min contact)?
Answer: 6.80 ppm

Question: And the sulfide remaining ([2]; 10 min contact)?
Answer: 6.00 ppm

Question: And the sulfide remaining ([2]; 20 min contact)?
Answer: 5.40 ppm

Question: For `O=C([O-])CN(CC(=O)[O-])CC(=O)[O-].[Fe+3]` [Fe-NTA], which “Test 1 CFUs/ml 19.8 ppm H2O2 6 ppm Fe-Chelant” value [1] is on record?
Answer: 370 CFUs/ml

Question: What about the “Test 2 CFUs/ml 39.6 ppm H2O2 12 ppm Fe-Chelant” value [1] of the same compound?
Answer: 75 CFUs/ml

Question: What about the “Test 3 CFUs/ml 12 ppm Fe-Chelant” value [1] of the same compound?
Answer: 18,300 CFUs/ml

Question: What about the “Overall total percentage of sulfide reduction” value [2] of the same compound?
Answer: 91%

Question: And the “Overall total percentage of sulfide reduction” value ([2]; listed as ferric NTA)?
Answer: 91%

Question: And the sulfide remaining ([2]; 5 min contact)?
Answer: 3.40 ppm

Question: What about the sulfide remaining ([2]; 10 min contact) of the same compound?
Answer: 1.90 ppm

Question: What about the sulfide remaining ([2]; 20 min contact) of the same compound?
Answer: 1.30 ppm

Question: What about the “sulfide reduction after 15 minutes” value [3] of the same compound?
Answer: 70.2%

Question: Which “Proportion in dissolved sulfide” value ([4]; pH 5.0) does the source give for `S` [HS^−] here?
Answer: ~0.01

Question: And the “Proportion in dissolved sulfide” value ([4]; pH 6.0)?
Answer: ~0.09

Question: What about the “Proportion in dissolved sulfide” value ([4]; pH 6.2) of the same compound?
Answer: ~0.14

Question: What about the “Proportion in dissolved sulfide” value ([4]; pH 6.4) of the same compound?
Answer: ~0.20

Question: What about the “Proportion in dissolved sulfide” value ([4]; pH 6.6) of the same compound?
Answer: ~0.28

Question: And the “Proportion in dissolved sulfide” value ([4]; pH 6.8)?
Answer: ~0.39

Question: And the “Proportion in dissolved sulfide” value ([4]; pH 7.0)?
Answer: ~0.50

Question: What about the “Proportion in dissolved sulfide” value ([4]; pH 7.2) of the same compound?
Answer: ~0.61

Question: And the “Proportion in dissolved sulfide” value ([4]; pH 7.4)?
Answer: ~0.72

Question: And the “Proportion in dissolved sulfide” value ([4]; pH 7.6)?
Answer: ~0.80

Question: What about the “Proportion in dissolved sulfide” value ([4]; pH 7.8) of the same compound?
Answer: ~0.86

Question: And the “Proportion in dissolved sulfide” value ([4]; pH 8.0)?
Answer: ~0.91

Question: And the “Proportion in dissolved sulfide” value ([4]; pH 8.2)?
Answer: ~0.941

Question: What about the “Proportion in dissolved sulfide” value ([4]; pH 8.4) of the same compound?
Answer: ~0.961

Question: What about the “Proportion in dissolved sulfide” value ([4]; pH 8.6) of the same compound?
Answer: ~0.975

Question: And the “Proportion in dissolved sulfide” value ([4]; pH 8.8)?
Answer: ~0.986

Question: What about the “Proportion in dissolved sulfide” value ([4]; pH 9.0) of the same compound?
Answer: ~0.99

Question: With `O=O` [Oxygen, oxygen] as the compound, how does the Sulfide ([5]; Trial 1, 5 min, control 33, 300 ml flask) read?
Answer: 25 mg/L

Question: And the Sulfide ([5]; Trial 2, 5 min, control 31)?
Answer: 25 mg/L

Question: And the Sulfide ([5]; Trial 2, 22 min, control 31)?
Answer: 1.5 mg/L

Question: What about the Sulfide ([6]; 5 min) of the same compound?
Answer: 30

Question: And the Sulfide ([6]; 10 min)?
Answer: 16

Question: What about the sulfide reduced ([6]; after 10 minutes of contact) of the same compound?
Answer: approximately 50%

Question: Which “Overall total percentage of sulfide reduction” value [2] does the source give for `O=[O+][O-]` [Ozone, ozone, reference compound] here?
Answer: 46%

Question: What about the sulfide remaining ([2]; 5 min contact) of the same compound?
Answer: 8.05 ppm

Question: What about the sulfide remaining ([2]; 10 min contact) of the same compound?
Answer: 7.50 ppm

Question: And the sulfide remaining ([2]; 20 min contact)?
Answer: 7.40 ppm

Question: With `O=[N+]([O-])[O-].[Na+]` [sodium nitrate] as the compound, how does the “reduction in sewage biological oxygen demand, BOD” value [7] read?
Answer: ≤ 70%

Question: And the “dissolved hydrogen sulfide after dosing” value ([7]; sewage containing over approximately 50 mg/L dissolved hydrogen sulfide)?
Answer: < 0.1 mg/L
